Entries after “also recorded” stand apart in the source; their conditions may differ.
What was measured:
Agrp, Npy and Slc32a1 = Agrp, Npy and Slc32a1 mRNA in GT1-7 cells; type: cell-based, mouse; conditions: 10 μM, 48 h
Excerpt: Mouse GT1-7 hypothalamic neuronal cell line (Sigma-Aldrich, SCC116) and human SH-SY5Y neuroblastoma cell line (Sigma Aldrich, 94030304) were purchased and cultured according to the manufacturers' instructions. Purified Ad-TET3 adenovirus (Ad-FLAG.h-TET3, ADV-225322, Vector Biolabs) expressing human TET3 from a CMV promoter and Ad-GFP control adenovirus (1060, Vector Biolabs) were purchased.
For Bobcat339 treatment (FIG. 15A and FIG. 15B), GT1-7 cells grown in 24-well plates at 2×10^5 cells/well were incubated with vehicle or Bobcat339 at a final concentration of 10 μM for 6 h, followed by RNA and protein extractions. […] Protein and RNA were isolated 48 h later and analyzed.
Total RNAs were extracted from neuronal cells or homogenized hypothalamic arcuate nucleus tissue samples using PureLink RNA Mini Kit (Ambion, 12183025). cDNA was synthesized using PrimeScript RT Reagent Kit in a 20 μl reaction containing 0.5-1 μg of total RNA. Real-time quantitative PCR was performed in a 15 μl reaction containing 0.5-1 μl of cDNA using SsoAdvanced Universal SYBR Green Supermix in a Bio-Rad iCycler. […]

[1] = test system: activity-based anorexia (ABA) mice; experiment: Activity-based anorexia (ABA) model; type: in vivo, mouse
Excerpt: The importance of AgRP neurons in psychiatric conditions such as anorexia was further underscored by a recent report showing that chemogenetic activation of AgRP neurons in mice during ABA attenuated bodyweight loss with reduction in excessive physical activity (Hickey et al., 2022, Mol Psychiatry). […] Thus, peripubertal female mice were exposed to the ABA paradigm as previously described (Miletta, M. C. et al., 2020, Nature Metabolism, 2:1204-1211). Mice were singly housed at postnatal day 36 (P36) with ad libitum access to food, water, and a running wheel. After 4 days of acclimation at P40, mice were food restricted with free access to food for only 2 h daily for 3 days. At P40 and before the onset of food restriction, mice received first intraperitoneal (i.p.) injection of Bobcat339 or vehicle, with second and third injections performed at P47 and P54, respectively (FIG. 17A).
Bobcat339 powder (Sigma-Aldrich, SML2611) was freshly dissolved in DMSO (vehicle) at a concentration of 50 mg/mL and filtered through a 0.22 micron. It was further diluted with 1×PBS to a final concentration of 0.5 mg/mL before injections. Mice were injected intraperitoneally with Bobcat339 at 1 mg/kg, 2.5 mg/kg, or 4 mg/kg.
On P36, animals were single housed with free access to food and water and 24 h access to a running wheel. After 4 days of acclimation, on P40, all food was removed from the cage and returned only for 2 h daily (free food access from 19:00 to 21:00) and 24 h access to a running wheel for 3 days. On P43, 24 h ad libitum access to food was returned and the running wheel access was blocked to allow the animals to recover. The animals were allowed to recover for at least 1 week before undergoing behavioral testing. Continuous multiday analysis of running wheel activity was recorded using VitalView Data Acquisition System software version 5.1 (Starr Life Science). Food intake was measured after measurement of the food pellets before and after the 2 h food restriction. Body weight was monitored in the morning. Body composition was assessed using EchoMRI analysis.

THP-1 cells = experiment: TUNEL assay in THP-1 cells; type: cell-based, human; conditions: THP-1, 10 μM, 48 h
Protocol: For TET3 expression restoration experiments, cells seeded in 24-well plates were infected with Ad-GFP or Ad-TET3 at 4000 gc/cell. Following 16 h of infection, vehicle or Bobcat339 were added at a final concentration of 10 μM. Protein and RNA were isolated 48 hours later and analyzed.
These were performed using the In Situ Cell Death Detection Kit (Sigma Aldrich, 12156792910). Briefly, cells were fixed with 4% paraformaldehyde in PBS for 1 h at RT and rinsed with PBS, followed by permeabilization with 0.1% Triton X-100 in 0.1% sodium citrate for 2 min on ice. TUNEL reaction mixture was added and incubation was carried out at 37 °C for 60 min. DAPI was added to counter-stain the cells for 1 min. The slides were coverslipped and scoped using a Keyence BZ-X700 fluorescence microscope.

Nc1nc(=O)n(-c2cccc(-c3ccccc3)c2)cc1Cl [Bobcat339, 4-Amino-1-[1,1′-biphenyl]-3-yl-5-chloro-2(1H)-pyrimidinone]
Agrp, Npy and Slc32a1 mRNA levels (Agrp, Npy and Slc32a1; with TET3-expressing adenovirus (Ad-TET3)): not seen when the level of TET3 protein was restored; also recorded: not seen when TET3 was overexpressed | Agrp, Npy and Slc32a1 mRNA levels (Agrp, Npy and Slc32a1; without exogenous TET3): increased in the mRNA levels of both Agrp and Npy; also recorded: increases in the mRNA levels of Agrp, Npy and Slc32a1; also recorded: significant increases in the Agrp/Nyp mRNAs | lethality in the ABA model ([1]; ABA): diminished lethality | body weight, daily food intake, and running wheel account ([1]; ABA, acclimation): no differences | body weight ([1]; ABA, food restriction): able to maintain their body weight throughout the experiment | food intake ([1]; ABA, food restriction): increased feeding; also recorded: a significant increase in food intake | wheel running ([1]; ABA, food restriction): decreased compulsive running; also recorded: decline in compulsive wheel running | body composition ([1]; end of the recovery period): No differences in body composition | onset of appetite-stimulating and anti-stress effects ([1]; i.p.): ≤ 24 h | duration of appetite-stimulating and anti-stress effects ([1]; single i.p. injection): lasted for at least one week | therapeutic effect in a mouse model of anorexia ([1]; summary): elicited therapeutic effects in a mouse model of anorexia | apoptosis (TUNEL) (THP-1 cells): a significant increase in apoptotic cell death
